# Values quoted from earlier work as cited in US20250235488A1, “COMPOSITIONS AND METHODS FOR PROVIDING HEMATOPOIETIC FUNCTION” (Fred Hutchinson Cancer Center, priority 2010, published 2025).
# What was measured:
# [1] = not given; remark: listed apart in the source
"plasma half-life, initial phase (after rapid IV injection)","plasma half-life, terminal phase (after rapid IV injection)","dose excreted in the urine within 24 hours (rapid IV, IM, SQ, IT injection or continuous IV infusion)",Compound,CSF concentrations as percentage of concurrent plasma concentrations (in vivo),"time after which no intact drug is detectable in plasma (in vivo, iv)",solubility in alcohol [1],solubility in lipids [1],solubility in water [1]
about 10 minutes,1 to 3 h,70-80%,Nc1ccn([C@@H]2O[C@H](CO)[C@@H](O)[C@@H]2O)c(=O)n1 [Cytarabine],–,–,–,–,–
–,–,–,O=NN(CCCl)C(=O)NCCCl [Carmustine],15-70%,15 min,freely soluble,highly soluble,slightly soluble
